The text below walks through data of patent US20040175382A1, “Methods of using and compositions comprising selective cytokine inhibitory drugs for the treatment and management of disorders of the central nervous system” (priority 2003, published 2004).

For data set [1], the system named is rat mesencephalonic neurons. As to conditions: in the presence of the adenylate cyclase activator forskolin; cited from earlier work.
Data set [2] deals with TNF-α production following LPS-stimulation of human PBMC and human whole blood. Description: in vitro pharmacological activity profile, comparison with thalidomide (cytokine production). It counts as cell-based. How it is done: The pharmacological properties of 3-(3,4-dimethoxy-phenyl)-3-(1-oxo-1,3-dihydro-isoindol-2-yl)-propionamide, including activity comparisons with thalidomide, are characterized in in vitro studies. Studies examine the effects of 3-(3,4-dimethoxy-phenyl)-3-(1-oxo-1,3-dihydro-isoindol-2-yl)-propionamide on the production of various cytokines. In addition, a safety pharmacology study of 3-(3,4-dimethoxy-phenyl)-3-(1-oxo-1,3-dihydro-isoindol-2-yl)-propionamide is conducted in dogs and the effects of the compound on ECG parameters are examined further as part of three repeat-dose toxicity studies in primates.
Inhibition of TNF-α production following LPS-stimulation of human PBMC and human whole blood by 3-(3,4-dimethoxy-phenyl)-3-(1-oxo-1,3-dihydro-isoindol-2-yl)-propionamide is investigated in vitro (Muller et al., Bioorg. Med. Chem. Lett. 9:1625-1630, 1999). The IC50's of 3-(3,4-dimethoxy-phenyl)-3-(1-oxo-1,3-dihydro-isoindol-2-yl)-propionamide for inhibiting production of TNF-α following LPS-stimulation of PBMC and human whole blood is measured.
The pharmacological effects of 3-(3,4-dimethoxy-phenyl)-3-(1-oxo-1,3-dihydro-isoindol-2-yl)-propionamide derive from its action as an inhibitor of cellular response to receptor-initiated trophic signals (e.g., IGF-1, VEGF, cyclooxygenase-2), and other activities.

Data set [3] can be described thus: cardiovascular and respiratory function in anesthetized dogs. It counts as in vivo. As to conditions: anesthetized Beagle dogs; 400, 800 and 1,200 mg/kg/day ascending doses, infusion through the jugular vein. How it is done:
The effects of 3-(3,4-dimethoxy-phenyl)-3-(1-oxo-1,3-dihydro-isoindol-2-yl)-propionamide on cardiovascular and respiratory function are investigated in anesthetized dogs. Two groups of Beagle dogs (2/sex/group) are used. One group receives three doses of vehicle only and the other receives three ascending doses of 3-(3,4-dimethoxy-phenyl)-3-(1-oxo-1,3-dihydro-isoindol-2-yl)-propionamide (400, 800, and 1,200 mg/kg/day). In all cases, doses of 3-(3,4-dimethoxy-phenyl)-3-(1-oxo-1,3-dihydro-isoindol-2-yl)-propionamide or vehicle are successively administered via infusion through the jugular vein separated by intervals of at least 30 minutes.

For a further data set, the system named is CBP+/− mutant mice. Conditions: cited from earlier work.
The test system of a further data set is patients with PD. Conditions: cited from earlier work.

Turning to `COCCOc1cc(OCCOC)cc(-c2nc(C)cc3cc(OC)c(OC)cc23)c1` [SDZ-MNS 949], the uptake of dopamine result in data set [1] is recorded as “stimulate uptake of dopamine”.

Turning to `COc1ccc(C(CC(N)=O)N2Cc3ccccc3C2=O)cc1OC` (stereo not drawn) [3-(3,4-dimethoxy-phenyl)-3-(1-oxo-1,3-dihydro-isoindol-2-yl)-propionamide], in data set [2] (in vitro), the “effect on generation of inflammatory cytokines” value was “suppresses the generation of inflammatory cytokines”. In addition, in data set [2] (in vitro studies, pharmacological activity profile similar to thalidomide), the “potency relative to thalidomide (times more potent)” value is recorded as 5 to 50 times. In data set [3], the “cardiovascular and respiratory changes compared to the vehicle control group” value is “minimal at all doses”.

For the molecule `CCCCOc1cc(CC2CNC(=O)N2)ccc1OC` (stereo not drawn) [Ro-20 1724], the uptake of dopamine result in data set [1] is listed as “stimulate uptake of dopamine”.

With `COc1ccc([C@H]2CNC(=O)[C@H](Cc3cccc(C)c3)C2)cc1OC1CCCC1` [HT0712], the long-term memory defects entry in the data set with CBP+/− mutant mice is recorded as “abolished the long-term memory defects”.

Take `COc1ccc(C2CNC(=O)C2)cc1OC1CCCC1` (stereo not drawn) [Rolipram]: the dose-limiting side effect entry in the data set with patients with PD (Phase II trials of PD) was “nausea”. The “deterioration of the therapeutic action of dopamine against Lisuride” value in the data set on patients with PD (double-blind trial versus placebo, patients with PD already under treatment, 3 mg per day) is “no significant deterioration”. Further, the long-term memory defects entry with CBP+/− mutant mice is listed as “abolished the long-term memory defects”.
